Entries after “also recorded” stand apart in the source; their conditions may differ.
Tests used:
Format in all cases: cell-based
[1] = tested on: rat liver spheroids; assay: Total protein content of rat liver spheroids after GalN exposure (Bradford); conditions: 24 hr exposure, vs control
Method: (§1) Liver spheroids were prepared from the liver of male Wistar rats by a two-step collagenase perfusion method described by Seglen P. O. ((1976). Preparation of isolated rat liver cells. Methods Cell. Biol. 13, 29-38) and modified by Lazar, A.; Peshwa, M. V., Wu, F. J., Chi, C. M., Cerra, F. B., and Hu, W. S. (1995). Extended liver-specific functions of procirne hepatocyte spheroids entrapped in collagen gel. In Vitro Cell Biol Anim. 31, 340-346). Viability of the isolated liver cells was determined by tyrpan blue dye exclusion i.e. an aliquot of isolated liver cells was mixed with an equal volume of trypan blue dye (1.0% w/v in isotonic saline) and incubated at room temperature for a minimum period of 5 minutes. Only isolated liver cell preparations with viability above 80% were used to prepare liver spheroids. […]
Spheroids were homogenized in homogenisation buffer containing NaH2PO42H2O, 2 mM; Na2HPO4, 2 mM; EDTA, 0.5 mM; and NaCl, 145 mM. Total protein was assessed according to the method developed by Bradford (1976). […] The protein content was determined by Micro Protein Kit (Sigma, Cat. No. 610-A). […] Absorbance was read on a microplate reader (Multiscan RC, Labsystem) at 595 nm.

[2] = tested on: rat liver spheroids; assay: Albumin synthesis of liver spheroids after GalN exposure (BCG albumin kit, medium); conditions: 24 hr exposure
Method: as §1, with “spheroids. The cell suspension was diluted with culture medium (hepatocyte medium supplemented with 10% FCS, […] L-glutamine, 2 ng/ml insulin, 100 U/ml penicillin and 100 μg/ml streptomycin sulfate) to give a cell density of 5×10^5 cells/ml. The diluted cell suspension was dispersed into 6-well plates, 3 ml/well.” for “spheroids.”
Albumin concentration in the medium was determined by Albumin Reagent Kit (BCG, Sigma). […] Absorbance was read on a microplate reader (Multiscan RC, Labsystems) at 630 nm.

[3] = tested on: rat liver spheroids; assay: Urea synthesis of liver spheroids after GalN exposure (Urea Nitrogen Kit, medium)
Method: as §1
Urea concentration in the media was determined using a Urea Nitrogen Kit (Cat. 640-A, Sigma). The method was modified in order to be suitable for a 96-well plate format and assays using a microplate reader. […] Total ammonium nitrogen of each sample was determined by adding 25 μl urease solution to each well followed by 10 μl of diluted medium. […] A blue colour developed and the absorbance was read on a microplate reader (Multiscan RC, Labsystems) at 590 nm. Free non-urea nitrogen was determined by adding 25 μl PBS without urease followed by 10 μl medium. […]

[4] = tested on: rat liver spheroids; assay: Glutathione content of liver spheroids after GalN exposure (fluorimetric OPT method); conditions: 24 hr exposure
Method: as §1, with “spheroids. The cell suspension was diluted with culture medium (hepatocyte medium supplemented with 10% FCS, […] L-glutamine, 2 ng/ml insulin, 100 U/ml penicillin and 100 μg/ml streptomycin sulfate) to give a cell density of 5×10^5 cells/ml.” for “spheroids.”
Glutathione levels in spheroids were determined by the fluorimetric method (Hissin P. J., and Hilf (1976). A fluorimetric method for the determination of oxidised and reduced glutathione in tissues. Anal. Biochem. 74, 214-226). […] Absorbance was read on a fluorimeter at excitation wavelength 350 nm and emission wavelength 420 nm.

[5] = tested on: rat liver spheroids; assay: Lactate dehydrogenase (LDH) leakage of liver spheroids after GalN exposure
Method: (§2) Liver spheroids were prepared from the liver of male Wistar rats by a two-step collagenase perfusion method described by Seglen P. O. ((1976). Preparation of isolated rat liver cells. Methods Cell. Biol. 13, 29-38) and modified by Lazar, A.; Peshwa, M. V., Wu, F. J., Chi, C. M., Cerra, F. B., and Hu, W. S. (1995). Extended liver-specific functions of procirne hepatocyte spheroids entrapped in collagen gel. In Vitro Cell Biol Anim. 31, 340-346). Viability of the isolated liver cells was determined by tyrpan blue dye exclusion i.e. an aliquot of isolated liver cells was mixed with an equal volume of trypan blue dye (1.0% w/v in isotonic saline) and incubated at room temperature for a minimum period of 5 minutes. Only isolated liver cell preparations with viability above 80% were used to prepare liver spheroids. The cell suspension was diluted with culture medium (hepatocyte medium supplemented with 10% FCS, […] L-glutamine, 2 ng/ml insulin, 100 U/ml penicillin and 100 μg/ml streptomycin sulfate) to give a cell density of 5×10^5 cells/ml. The diluted cell suspension was dispersed into 6-well plates, 3 ml/well. The plates were incubated at 37° C., in a 5% CO2 incubator on a gyrotatory shaker (New Brunswick) at an initial rotation speed of 85 rpm for the first 24 hr and 77 rpm thereafter. The plates were rotated at this speed for the duration of the study (up to 45 days, but typically 2-10 days). 1.5 ml of old medium was replaced with 2.0 ml fresh medium for each well every other day. Media exchange was carried out over the duration of the study (up to 45 days, but typically 2-10 days). […]
LDH in the media was assayed using the method developed by Korzeniewski and Callewaert (Korzeniwski, C., and Callewaert, D. M. (1983). An enzyme-release assay for natural cytotoxicity. J Immun. Meth. 64, 313-320). […] The resultant absorbance at 490 mn was monitored for 15 min, at 10 sec intervals on a microplate reader (Multiscan RC, Labsystem).

[6] = tested on: rat liver spheroids; assay: Intoxification of liver spheroids: spheroid damage / functional change observed
Method: as §2, with “thereafter.” for “thereafter. The plates were rotated at this speed for the duration of the study (up to 45 days, but typically 2-10 days). 1.5 ml of old medium was replaced with 2.0 ml fresh medium for each well every other day. Media exchange was carried out over the duration of the study (up to 45 days, but typically 2-10 days).”

[7] = 0-40 mM GalN, trend over concentration

## N[C@H]1C(O)O[C@H](CO)[C@H](O)[C@@H]1O (stereo partly drawn) [GalN, D-Galactosamine]
[1]; 20 mM or lower GalN
  total protein content of spheroids: not affected; also recorded: did not decrease
[1]; 40 mM GalN, p<0.05
  total protein content of spheroids: significantly decreased
[2]; [7]
  albumin synthesis: concentration-dependent decrease
[2]; 40 mM GalN, vs control, p<0.05
  albumin synthesis: decrease was significant
[3]; 0-40 mM GalN, 24 hr after exposure, trend over concentration
  urea synthesis: concentration-dependent increase
[3]; 10 mM or higher GalN, 24 hr, vs control, p<0.05
  synthetic rates of urea: significantly higher
[4]; 20 mM and lower GalN
  glutathione content: did not decrease
[4]; 40 mM GalN, p<0.05
  glutathione content: significantly decreased
[5]; [7]
  LDH leakage: concentration-dependent increase
[5]; 10 mM GalN, 24 hr, p<0.05
  LDH leakage: significantly increased
[5]; 20 and 40 mM GalN, 4 hours after exposure, vs control, p<0.05
  LDH leakage: significant increase
[6]; 20 mM GalN
  functional change of liver spheroids: caused a functional change
[6]; 40 mM GalN (highest concentration), 24 hr exposure
  spheroid damage / cell death: caused acute cell death
